Entries after “also recorded” stand apart in the source; their conditions may differ.
What was measured:
adipogenesis = assay: Adipogenic activity of peptides and peptide fragments, assay not specified; assay type: cell-based; conditions: assay not specified
Method: In the second approach, a series of truncations and alanine mutagenesis on peptide B were performed in order to identify the smallest active sequence. Fragments of peptide B were prepared and assayed for adipogenesis. First, fragments corresponding to the two halves of peptide B were prepared (KLKDENS (SEQ ID NO: 8) and SQLKSEVSK (SEQ ID NO: 13)).

[1] = tested on: rat mesenchymal stem cells; assay: Assay 2: adipogenesis, Oil Red O staining (differentiation of pre-adipocytes into adipocytes); assay type: cell-based; conditions: for adipogenesis quantified by Oil Red O staining, fold change relative to the negative control: Assay 2, three weeks; for adipogenic activity in Assay 2: Assay 2, Oil Red O, concentration not given
Method: Reagents: The Dexamethasone, IBMX, Insulin, and Oil Red O Solutions were the same as described above for assay 1. Indomethacin Solution contained 10 mM indomethacin in methanol.
Adipogenesis Maintenance Media was prepared as described above.
Adipogenesis Induction Media: To prepare 501.5 mL of Adipogenesis Induction Media, 50 μL of the 10 mM stock Dexamethasone Solution, 500 μL of the 0.5 M IBMX stock solution, 500 μL of the 10 mg/ml stock Insulin Solution, 5 ml of a 10 mM stock Indomethacin Solution, and 5 mL of a 100× stock solution of penicillin and streptomycin were added to 490 mL of mesenchymal stem cell expansion media.
Pre-adipocyte stem cells, bone marrow mesenchymal stem cells or fibroblasts such as dermal reticular and papillary fibroblasts were propagated using standard tissue culture methods. Cells were trypsinized to remove cells from the substratum, the trypsin was neutralized, and cells were counted using a hemocytometer. Cells were resuspended at 20,000 cells/ml in DMEM containing 10% calf serum. 1 mL of cell suspension per well was plated in a 48-well plate, with several wells left empty for blank well (blank control) staining.
Cells were incubated for 2 days overnight and had reached confluency at this point. Media was removed from each well and replaced with 0.5 ml Adipogenesis Induction Media. For negative control (no insulin, no peptide) wells, expansion medium only was used at this step and for subsequent media changes. For all media changes, media was replaced as gently as possible to avoid disturbing the monolayer.
Cells were incubated for 72 hours at 37° C., 5% CO2. Media was removed and replaced with 0.5 ml of Adipogenesis Maintenance Media containing either RHAMM antagonist peptides (experimental group) or insulin (concentration as in the Adipogenesis Induction Media and used as a positive control). Cells were incubated for at least 96 hours in this media at 37° C., 5% CO2. Media was replaced every 48 hours and experiments were terminated between seven and fourteen days after addition of insulin or peptides.
Media was removed and Oil Red O staining was performed as described above for assay 1.
Assay 1 is an assay that promotes transdifferentiation of fibroblasts into adipocytes, whereas Assay 2 promotes differentiation of multi-potential mesenchymal progenitor cells into adipocytes. Immortalized rat bone marrow mesenchymal stem cells were used for both assays. These cells contain cells of different lineages, including fibroblasts, pre-adipocytes, pre-chondrocytes and pre-osteoblasts. Thus, Assay 1 was used to promote transdifferentiation of fibroblast lineages into adipocytes and Assay 2 was used to promote differentiation of the pre-adipocytes into adipocytes.
As described in Example 1 above, the priming stimulus for Assay 1 includes IBMX (3-isobutyl-1-methylxanthine) and dexamethasone, and then insulin as the final adipogenic stimulus. The priming stimulus for assay 2 includes IBMX, dexamethasone and indomethacin, and then insulin as the final adipogenic stimulus.
Adipogenesis was quantified by Oil Red O staining. The peptide was tested at concentrations of 5 and 50 μg/ml over a period of three weeks. Cells were plated in 48-well culture plates, and the purity of the peptides was >95%. All data are presented as the fold change relative to the negative control (Ctr(−))±standard error. The KSEVSK 6-mer (SEQ ID NO: 7) was used as a positive control.

[2] = tested on: rat mesenchymal stem cells; assay: Assay 1: adipogenesis, Oil Red O staining (transdifferentiation of fibroblast lineages into adipocytes); assay type: cell-based; conditions: for adipogenesis quantified by Oil Red O staining, fold change relative to the negative control: Assay 1, three weeks
Method: Reagents: (1) 3-isobutyl-1-methylxanthine (IBMX) solution: 0.5M in DMSO; (2) Insulin Solution: 10 mg/mL recombinant human insulin; (3) Dexamethasone Solution in 10 mM in ethanol; (4) Oil Red O (0.36% in 60% isopropanol).
Adipogenesis Initiation Media: mesenchymal stem cell expansion media/0.5 mM IBMX/1 μM dexamethasone. Mesenchymal stem cell expansion media is commercially available from Millipore. The IBMX Solution was diluted 1:1000 and the Dexamethasone Solution was diluted 1:10,000 in expansion media containing antibiotics and antimycotics. The prepared media was stored at 4° C.
Adipogenesis Progression Media for positive control: mesenchymal stem cell expansion media/10 μg/mL insulin. The Insulin Solution was diluted 1:1000 in the expansion media and stored at 4° C.
Experimental Adipogenesis Progression Media: mesenchymal stem cell expansion media/1-100 μg/mL RHAMM antagonist peptides.
Adipogenesis Maintenance Media: mesenchymal stem cell expansion media containing antibiotics and antimycotics.
Negative Control Media: Dulbecco's Modified Eagle's Medium (DMEM)/10% normal calf serum.
Pre-adipocyte stem cells including bone marrow mesenchymal stem cells and fibroblasts were propagated using standard tissue culture methods. Cells were trypsinized to remove the cells from the substratum. The trypsin was neutralized and cells were counted using a hemocytometer. Cells were resuspended at 20,000 cells/mL in expansion media. 1 mL of cell suspension was plated per well of 48-well plate, with several wells left empty for blank well (blank control) staining.
Cells were incubated until they reached confluency. When cells were fully confluent, the expansion media was replaced with 0.5 mL of Adipogenesis Initiation Media. For negative controls (no insulin, no peptides), expansion media only was used at this step and for subsequent media changes. For all media changes, media was replaced as gently as possible to avoid disturbing the monolayer.
Cells were incubated in Adipogenesis Initiation Media for 72 hours at 37° C., 5% CO2. 0.5 mL media was then removed from each well, and replaced with 0.5 mL of either positive control or experimental Adipogenesis Progression Media per well. Cells were again incubated for 96 hours at 37° C., 5% CO2, after which time media was replaced every 48 hours with Adipogenesis Maintenance Media (0.5 mL of media was removed from each well and replaced with 0.5 mL Adipogenesis Maintenance Media per well). Media added to empty wells served as blank controls for blank well background staining. Cells were incubated in Adipogenesis Maintenance Medium for at least 96 hours at 37° C., 5% CO2 after which time media was replaced with Adipogenesis Maintenance Medium. Lipid droplets had appeared by the time Adipogenesis Maintenance Medium was initially added and continued to accumulate and increase in size for 7-14 days. Experiments were terminated between seven and fourteen days after the initial addition of Adipogenesis Maintenance Medium.
For quantification of Oil Red O staining, media was removed and cells were washed twice with PBS, using care to gently add the PBS. Cells were then fixed in 4% paraformaldehyde (0.5 mL/well) and incubated for 30 minutes. The fixation solution was then removed and wells were washed two times with 1 mL of phosphate buffered saline (PBS) and once with 1 mL Milli-Q water. 0.25 mL Oil Red O solution was added per well of 48-well plate, including to the wells lacking cells, but containing media. Cells were incubated for 15 minutes at room temperature. The staining solution was then removed and wells were washed two times with 1 mL of Milli-Q water and once with washing solution (63% isopropanol in water).
Adipogenesis was quantified using a spectrophotometer. 0.25 mL Dye Extraction Solution (isopropyl alcohol) was added per well, and the plate was set on an orbital shaker or platform rocker for 30 minutes. […]

3T3L cells = assay: Adiponectin ELISA on supernatant medium of primed 3T3L cells; assay type: cell-based, mouse; conditions: 10 μg/ml peptide, versus no insulin control
Method: 3T3L cells were cultured in T75 culture flasks, in expansion medium (Millipore Corporation), and stored in a 5% CO2 humidified incubator at 37° C. Media was changed every two days until the cells reached 80% confluency. Cells were subcultured in a 96 well plate with a seeding density of 3×10^4 cells per cm^2.
Once cells had just reached confluency, expansion media was replaced with 0.5 mL of Adipogenic Induction Media per well containing 5% serum that had been screened for an ability to maintain stem cells in an undifferentiated state (LifeTechnologies). Cells were incubated for 48 hours at 37° C., 5% CO2. The Adipogenic Induction Media contained DMEM (low glucose, Gibco) +5% serum (LifeSciences) with 0.5 mM IBMX solution, 1 μM Dexamethasone Solution, and 100 μM Indomethacin Solution (priming stimulus). After 48 hr the Adipogenic Induction media was replaced with new media containing 10 μg/ml insulin alone (positive control), or 10 μg/ml peptide (experimental conditions). Negative controls were DMEM +5% serum only. Plates were incubated for two days prior to adiponectin ELISA analyses. Peptides were added daily at 10 μg/ml throughout the remainder of the experiment.
Adiponectin present in the supernatant medium was measured using a mouse adiponectin ELISA (Novex, LifeTechnologies). Briefly, supernatant medium was collected and diluted 1:100. One hundred microliters of the diluted supernatant medium was added to each well of the ELISA plate and incubated for one hour at 37° C. Wells were washed three times with 1× wash buffer and then 100 μl of antibody was added to each well and incubated for one hour at 37° C. The wells were then washed and incubated with 100 μl detector antibody for 1 hr at 37° C. The wells were washed five times with wash buffer and 100 μl of substrate solution was added to each well and incubated for twenty minutes in the dark. The reaction was then stopped by the addition of 100 μl stop solution. Plates were read at 450 nm and concentrations of adiponectin were derived from a standard curve included in the ELISA plate.
Insulin and the KSEVSK peptide (SEQ ID NO: 7) served as positive controls. […] In FIG. 7, values marked by asterisks represent significant changes relative to the no insulin control (i.e., the negative control) using a two-tailed Student's T test, p<0.05.

[3] = earlier reports, background and U.S. Pat. No. 6,271,344; cited from earlier work
mesenchymal stem cell = conditions: commercially available mesenchymal stem cell kit; as described in WO 2014/082042; cited from earlier work

SQLKSEVSK (listed as Homo sapiens)
adipogenic activity (adipogenesis): found to be adipogenic

KLKDENSQ (listed as Homo sapiens)
adipogenesis quantified by Oil Red O staining, fold change relative to the negative control ([1]; peptide 5 μg/ml): significant adipogenic effect
adipogenesis quantified by Oil Red O staining, fold change relative to the negative control ([1]; peptide 50 μg/ml): significant adipogenic effect
adipogenic activity (adipogenesis): are adipogenic
adipogenesis quantified by Oil Red O staining, fold change relative to the negative control ([2]; peptide 5 μg/ml): significant adipogenic effect
adipogenesis quantified by Oil Red O staining, fold change relative to the negative control ([2]; peptide 50 μg/ml): significant adipogenic effect

KTRSHHI (listed as Monodelphis domestica)
adipogenic activity in Assay 2 [1]: ablated adipogenic activity
adipogenic activity in Assay 1 ([2]; Assay 1, Oil Red O, concentration not given): ablated adipogenic activity

LKSEVSK (listed as Homo sapiens)
adipogenic activity (adipogenesis): also found to be adipogenic

KLQEELNKV (Ovis aries)
adipogenesis quantified by Oil Red O staining, fold change relative to the negative control ([1]; peptide 5 μg/ml): only observed when a concentration of 50 μg/ml was used
adipogenesis quantified by Oil Red O staining, fold change relative to the negative control ([1]; peptide 50 μg/ml): significantly increased adipogenesis
adipogenesis quantified by Oil Red O staining, fold change relative to the negative control ([2]; peptide 5 μg/ml): significantly increased adipogenesis
adipogenesis quantified by Oil Red O staining, fold change relative to the negative control ([2]; peptide 50 μg/ml): significantly increased adipogenesis

KTSSHHV (listed as Arabidopsis thaliana)
adipogenic activity in the adiponectin assay (adiponectin secretion) (3T3L cells): lack an ability to promote adipogenesis

KTRSHHV
adipogenic activity in Assay 2 [1]: not in assay 2
adipogenic activity (adipogenesis): has adipogenic activity; also recorded: is adipogenic
adipogenesis quantified by Oil Red O staining, fold change relative to the negative control ([2]; peptide 5 μg/ml): significant increase in adipogenesis

STMMSRSHK
adipogenic activity (adipogenesis): found to have adipogenic activity

STMMSRSHKTRSCHH
binding to hyaluronan (HA) [3]: binds to HA

KLKDENS (listed as Homo sapiens)
adipogenic activity (adipogenesis): did not exhibit adipogenic activity; also recorded: lack adipogenic activity

B1: 114 amino acid protein fragment: RHAMM carboxy-terminal sequence from mouse RHAMM produced as a recombinant protein (protein, listed as Mus musculus)
chain: LDAFEAEKQALLNEHGATQEQLNKIRDSYAQLLGHQNLKQKIKHVVKLKDENSQLKSEVSKLRSQLVKRKQNELRLQGELDKALGIRHFDPSKAFCHASKENFTPLKEGNPNCC
adipogenesis (mesenchymal stem cell): promoted adipogenesis
